Measurements: ChEMBL document CHEMBL1133542, “Adenosine deaminase inhibitors: synthesis and biological evaluation of unsaturated, aromatic, and oxo derivatives of (+)-erythro-9-(2'S-hydroxy-3'R-nonyl)adenine [(+)-EHNA]” (J Med Chem, 2000)
pKi: −log10 of the molar value.

Molecular target: T1, Adenosine deaminase (Bos taurus, UniProt P56658)
T1 sequence (P56658 whole entry): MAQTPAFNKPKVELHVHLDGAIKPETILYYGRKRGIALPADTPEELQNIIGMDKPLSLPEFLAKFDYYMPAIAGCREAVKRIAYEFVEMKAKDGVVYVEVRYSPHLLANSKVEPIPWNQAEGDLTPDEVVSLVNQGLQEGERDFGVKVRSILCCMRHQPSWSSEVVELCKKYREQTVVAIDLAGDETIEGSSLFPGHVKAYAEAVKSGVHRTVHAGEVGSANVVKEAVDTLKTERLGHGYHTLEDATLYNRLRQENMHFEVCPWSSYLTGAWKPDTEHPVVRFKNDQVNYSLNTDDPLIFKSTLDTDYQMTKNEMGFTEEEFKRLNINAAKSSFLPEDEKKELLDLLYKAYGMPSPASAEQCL
Description: Inhibition of Adenosine deaminase (ADA) of calf intestine

| SMILES | pKi |
| --- | --- |
| C[C@H](O)[C@@H](COCCc1ccccc1)n1cnc2c(N)ncnc21 | 7.03 |
| CCCCOC[C@H]([C@H](C)O)n1cnc2c(N)ncnc21 | 6.91 |
